These results are taken from ChEMBL document CHEMBL6120945, “Peptidomimetic Analogues Act as Effective Inhibitors against SARS-CoV-2 by Blocking the Function of Cathepsin L” (J Med Chem, 2024).

Assay [1] can be described thus: Inhibition of human recombinant Cathepsin L-like protease using Z-FR-AMC as substrate preincubated for 30 mins followed by substrate addition and measured after 1.5 hrs by fluorescence based analysis.
In assay [2] the target is Replicase polyprotein 1ab (Severe acute respiratory syndrome coronavirus 2, UniProt P0DTD1). Nature of the assay: Inhibition of recombinant SARS-CoV-2 3CLpro using MCA-AVLQSGFR-Lys(Dnp)-Lys-NH2 as substrate incubated for 1.5 hrs by fluorescence based analysis.

Where a SMILES comes first, the peptide text is derived from it. [ ]: non-standard residue; d: D form. The star is where a group is joined. ξ: configuration not given here. Hydrocinnamoyl = O=C(CCc1ccccc1)*; ξF = NC(Cc1ccccc1)C(=O)O; Cbz = O=C(OCc1ccccc1)*; Hexanoyl = CCCCCC(=O)*; PhAc = O=C(Cc1ccccc1)*; Boc = CC(C)(C)OC(=O)*; Butyryl = CCCC(=O)* A value given as a limit tells only on which side of the number the result lay.

For orientation: IC50 means the point on the concentration scale where inhibition reaches its midpoint.

For the compound `CC(C)(C)[C@H](NC(=O)/C=C/c1ccccc1)C(=O)N[C@H](C=O)Cc1ccccc1`, the IC50 in assay [1] was 182 nM; in assay [2], over 10000 nM.
As for `CCCC[C@H](NC(=O)/C=C/c1ccccc1)C(=O)N[C@H](C=O)Cc1ccccc1`, the half-inhibitory concentration (IC50) in assay [1] is 157 nM; in assay [2] it was over 10000 nM.
Take `CC(C)[C@H](NC(=O)OCc1ccccc1)C(=O)NC(C=O)Cc1ccccc1` (stereo partly drawn) (Cbz-Val-[ξF]-aldehyde): in assay [1], the 50% inhibitory concentration (IC50) was 19900 nM.
For `C[C@H](NC(=O)/C=C/c1ccccc1)C(=O)N[C@H](C=O)Cc1ccccc1`, the 50% inhibitory concentration (IC50) in assay [1] was 42.1 nM; in assay [2] it was over 10000 nM.
Consider `CC(C)C[C@H](NC(=O)/C=C/c1ccccc1)C(=O)N[C@@H](Cc1ccccc1)C(N)=O`, for which the concentration for half-maximal inhibition (IC50) in assay [1] is over 1000 nM; in assay [2], over 10000 nM.
Turning to `O=C[C@H](Cc1ccccc1)NC(=O)[C@H](Cc1cccc(F)c1)NC(=O)/C=C/c1ccccc1`, the half-inhibitory concentration (IC50) in assay [1] is 6.56 nM; in assay [2], over 10000 nM.
In the case of `CCC[C@H](NC(=O)/C=C/c1ccccc1)C(=O)N[C@H](C=O)Cc1ccccc1`, the concentration for half-maximal inhibition (IC50) was 125 nM in assay [1] and over 10000 nM in assay [2].
As for `CC(C)C[C@H](NC(=O)/C=C/c1ccccc1)C(=O)N[C@@H](C=O)Cc1ccccc1`, the IC50 is over 1000 nM in assay [1] and over 10000 nM in assay [2].
On to `O=C[C@H](Cc1ccccc1)NC(=O)[C@H](Cc1ccccc1F)NC(=O)/C=C/c1ccccc1`, for which the IC50 is 6.82 nM in assay [1] and over 10000 nM in assay [2].
Take `CC(C)C[C@H](NC(=O)Cc1ccccc1)C(=O)N[C@H](C=O)Cc1ccccc1` (PhAc-Leu-Phe-aldehyde): the concentration for half-maximal inhibition (IC50) in assay [1] is 7.82 nM; in assay [2] it was over 10000 nM.
With `CC(C)C[C@H](NC(=O)c1ccc([N+](=O)[O-])cc1)C(=O)N[C@H](C=O)Cc1ccccc1`, the IC50 in assay [1] was 8.19 nM; in assay [2], over 10000 nM.
On to `CC(C)C[C@H](NC(=O)c1cccc2ccccc12)C(=O)N[C@H](C=O)Cc1ccccc1`, for which the IC50 in assay [1] is 1.26 nM; in assay [2], over 10000 nM.
Regarding `CC(C)C[C@H](NC(=O)c1ccccc1F)C(=O)N[C@H](C=O)Cc1ccccc1`, the IC50 in assay [1] is 9.66 nM; in assay [2], over 10000 nM.
`CSCC[C@@H](C=O)NC(=O)[C@H](CC(C)C)NC(=O)/C=C/c1ccccc1`: the values for the IC50 in assay [1] and in assay [2] were 29.4 nM and over 10000 nM, respectively.
The like results for `O=C[C@H](Cc1ccccc1)NC(=O)[C@H](Cc1ccc(Br)cc1)NC(=O)/C=C/c1ccccc1` were, in that order, 11.6 nM and over 10000 nM.
Turning to `CC(C)C[C@H](NC(=O)c1ccc(-c2ccccc2)cc1)C(=O)N[C@H](C=O)Cc1ccccc1`, the figures for the 50% inhibitory concentration (IC50) in assay [1] and in assay [2] were 20.9 nM and over 10000 nM, respectively.
As for `CC(C)C[C@H](NC(=O)/C=C/c1cccc(F)c1)C(=O)N[C@H](C=O)Cc1ccccc1`, the half-inhibitory concentration (IC50) in assay [1] is 46.2 nM; in assay [2], over 10000 nM.
For `CCC(=O)[C@H](Cc1ccccc1)NC(=O)[C@H](CC(C)C)NC(=O)/C=C/c1ccccc1`, the IC50 was over 1000 nM in assay [1] and over 10000 nM in assay [2].
On to `CC(C)C[C@H](NC(=O)C1CCCCC1)C(=O)N[C@H](C=O)Cc1ccccc1`, for which the values for the IC50 in assay [1] and in assay [2] were 6.06 nM and over 10000 nM, respectively.
Consider `CC(C)C[C@H](NC(=O)/C=C/c1ccccc1)C(=O)N[C@@H](Cc1ccccc1)C(=O)CCl`, for which the figures for the 50% inhibitory concentration (IC50) in assay [1] and in assay [2] were 9.87 nM and over 10000 nM, respectively.
Take `CC(C)C[C@H](NC(=O)c1ccc(Br)cc1)C(=O)N[C@H](C=O)Cc1ccccc1`: the IC50 in assay [1] is 9.59 nM; in assay [2], over 10000 nM.
The like results for `CC(C)C[C@H](NC(=O)c1ccc2ccccc2c1)C(=O)N[C@H](C=O)Cc1ccccc1` were, in that order, 2.83 nM and over 10000 nM.
In the case of `CC(C)C[C@H](NC(=O)c1ccco1)C(=O)N[C@H](C=O)Cc1ccccc1`, the IC50 was 17.4 nM in assay [1] and over 10000 nM in assay [2].
As to `CC(C)C[C@H](NC(=O)/C=C/c1ccccc1)C(=O)N[C@H](C=O)Cc1ccccc1F`, the figures for the half-inhibitory concentration (IC50) in assay [1] and in assay [2] were 23.4 nM and over 10000 nM, respectively.
As for `CCCCCC(=O)N[C@@H](CC(C)C)C(=O)N[C@H](C=O)Cc1ccccc1` (Hexanoyl-Leu-Phe-aldehyde), the concentration for half-maximal inhibition (IC50) in assay [1] is 34.6 nM; in assay [2], over 10000 nM.
With `CC(C)C[C@H](NC(=O)c1ccc[nH]1)C(=O)N[C@H](C=O)Cc1ccccc1`, the concentration for half-maximal inhibition (IC50) in assay [1] is 37.7 nM; in assay [2], over 10000 nM.
Take `CC(C)C[C@H](NC(=O)/C=C/c1ccc(C(F)(F)F)cc1)C(=O)N[C@H](C=O)Cc1ccccc1`: the values for the concentration for half-maximal inhibition (IC50) in assay [1] and in assay [2] were 75.8 nM and over 10000 nM, respectively.
Consider `CCCC(=O)N[C@@H](CC(C)C)C(=O)N[C@H](C=O)Cc1ccccc1` (Butyryl-Leu-Phe-aldehyde), for which the half-inhibitory concentration (IC50) in assay [1] is 72.7 nM; in assay [2] it was over 10000 nM.
On to `CC(C)C[C@H](NC(=O)c1ccc(F)cc1)C(=O)N[C@H](C=O)Cc1ccccc1`, for which the results for the half-inhibitory concentration (IC50) in assay [1] and in assay [2] were 9.85 nM and over 10000 nM, respectively.
Regarding `CC(C)C[C@H](NC(=O)/C=C/c1ccc(Br)cc1)C(=O)N[C@H](C=O)Cc1ccccc1`, the IC50 in assay [1] was 38.4 nM; in assay [2], over 10000 nM.
Consider `CC(C)C[C@H](NC(=O)c1ccc2[nH]ccc2c1)C(=O)N[C@H](C=O)Cc1ccccc1`, for which the 50% inhibitory concentration (IC50) in assay [1] is 2.05 nM; in assay [2], over 10000 nM.
As to `COc1ccc(C[C@@H](C=O)NC(=O)[C@H](CC(C)C)NC(=O)/C=C/c2ccccc2)cc1`, the half-inhibitory concentration (IC50) in assay [1] was 131 nM; in assay [2] it was over 10000 nM.
On to `COC(=O)/C=C/[C@H](Cc1ccccc1)NC(=O)[C@H](CC(C)C)NC(=O)/C=C/c1ccccc1`, for which the values for the half-inhibitory concentration (IC50) in assay [1] and in assay [2] were over 1000 nM and over 10000 nM, respectively.
As to `CC(C)C[C@H](NC(=O)/C=C/c1ccccc1)C(=O)N[C@H](C=O)Cc1ccccc1Br`, the IC50 in assay [1] was 180 nM; in assay [2], over 10000 nM.
Take `CC(C)C[C@H](NC(=O)c1cc[nH]c1)C(=O)N[C@H](C=O)Cc1ccccc1`: the IC50 was 37.3 nM in assay [1] and over 10000 nM in assay [2].
Turning to `CC(C)[C@H](NC(=O)/C=C/c1ccccc1)C(=O)N[C@H](C=O)Cc1ccccc1`, the half-inhibitory concentration (IC50) was 22 nM in assay [1] and over 10000 nM in assay [2].
`O=C[C@H](Cc1ccccc1)NC(=O)[C@H](Cc1ccc(F)cc1)NC(=O)/C=C/c1ccccc1`: the IC50 in assay [1] is 6.68 nM; in assay [2], over 10000 nM.
For the compound `CC(C)C[C@H](NC(=O)CCc1ccccc1)C(=O)N[C@H](C=O)Cc1ccccc1` (Hydrocinnamoyl-Leu-Phe-aldehyde), the 50% inhibitory concentration (IC50) is 18.2 nM in assay [1] and over 10000 nM in assay [2].
With `CC[C@H](C)[C@H](NC(=O)/C=C/c1ccccc1)C(=O)N[C@H](C=O)Cc1ccccc1`, the IC50 is 170 nM in assay [1] and over 10000 nM in assay [2].
With `CC(C)C[C@H](NC(=O)/C=C/c1ccccc1)C(=O)N[C@H](C=O)Cc1ccc([N+](=O)[O-])cc1`, the IC50 in assay [1] is 345 nM; in assay [2], over 10000 nM.
For `O=C[C@H](Cc1ccccc1)NC(=O)[C@H](Cc1ccccc1)NC(=O)/C=C/c1ccccc1`, the IC50 in assay [1] is 6.65 nM; in assay [2], over 10000 nM.
For the compound `CC(C)C[C@H](NC(=O)c1ccc(Cl)cc1)C(=O)N[C@H](C=O)Cc1ccccc1`, the IC50 in assay [1] was 9.47 nM; in assay [2], over 10000 nM.
Regarding `CC(C)C[C@H](NC(=O)OCc1ccccc1)C(=O)N[C@H](C=O)Cc1ccccc1` (Cbz-Leu-Phe-aldehyde), the IC50 was 9.88 nM in assay [1] and over 10000 nM in assay [2].
`CC(C)C[C@H](NC(=O)OC(C)(C)C)C(=O)N[C@H](C=O)Cc1ccccc1` (Boc-Leu-Phe-aldehyde): the half-inhibitory concentration (IC50) was 165 nM in assay [1] and over 10000 nM in assay [2].
As for `CC(C)C[C@H](NC(=O)c1cccc(F)c1)C(=O)N[C@H](C=O)Cc1ccccc1`, the IC50 is 7.5 nM in assay [1] and over 10000 nM in assay [2].
As for `CC(C)C[C@H](NC(=O)/C=C/c1ccccc1)C(=O)N[C@H](C=O)Cc1ccc(C(F)(F)F)cc1`, the concentration for half-maximal inhibition (IC50) in assay [1] is 253 nM; in assay [2], over 10000 nM.
With `CC(C)C[C@H](NC(=O)c1ccncc1)C(=O)N[C@H](C=O)Cc1ccccc1`, the IC50 in assay [1] was 8.46 nM; in assay [2], over 10000 nM.
As to `CC(C)C[C@H](NC(=O)/C=C/c1ccccc1)C(=O)N[C@H](C=O)Cc1ccc(F)cc1`, the IC50 in assay [1] was 74.1 nM; in assay [2], over 10000 nM.
Take `CC(C)C[C@H](NC(=O)/C=C/c1ccccc1Cl)C(=O)N[C@H](C=O)Cc1ccccc1`: the values for the IC50 in assay [1] and in assay [2] were 9.57 nM and over 10000 nM, respectively.
As for `CC(C)C[C@H](NC(=O)/C=C/c1ccccc1)C(=O)N[C@H](C=O)C(C)C`, the IC50 in assay [1] is 23.4 nM; in assay [2] it was over 10000 nM.
Consider `CC(C)C[C@H](NC(=O)C1CCC(F)(F)CC1)C(=O)N[C@H](C=O)Cc1ccccc1`, for which the values for the IC50 in assay [1] and in assay [2] were 6.29 nM and over 10000 nM, respectively.
Take `O=C[C@H](Cc1ccccc1)NC(=O)[C@H](Cc1ccc(Cl)cc1)NC(=O)/C=C/c1ccccc1`: the figures for the IC50 in assay [1] and in assay [2] were 8.91 nM and over 10000 nM, respectively.
As for `C=Cc1ccc(C(=O)N[C@@H](CC(C)C)C(=O)N[C@H](C=O)Cc2ccccc2)cc1`, the 50% inhibitory concentration (IC50) was 9.41 nM in assay [1] and over 10000 nM in assay [2].
Turning to `CC(C)C[C@H](NC(=O)/C=C/c1ccccc1)C(=O)N[C@H](C=O)Cc1ccccc1Cl`, the figures for the IC50 in assay [1] and in assay [2] were 58 nM and over 10000 nM, respectively.
`CC(C)C[C@H](NC(=O)Cc1c[nH]c2ccccc12)C(=O)N[C@H](C=O)Cc1ccccc1`: the half-maximal inhibitory concentration (IC50) in assay [1] was 3.18 nM; in assay [2], over 10000 nM.
Take `CC(C)C[C@H](NC(=O)C1CCOCC1)C(=O)N[C@H](C=O)Cc1ccccc1`: the 50% inhibitory concentration (IC50) in assay [1] was 20.2 nM; in assay [2], over 10000 nM.
For `CC(C)C[C@H](NC(=O)/C=C/c1ccc(F)cc1)C(=O)N[C@H](C=O)Cc1ccccc1` the same measures were 20.1 nM and over 10000 nM.
For `CC(C)C[C@H](NC(=O)/C=C/c1ccccc1)C(=O)N[C@H](C=O)Cc1cccc(F)c1`, the concentration for half-maximal inhibition (IC50) is 162 nM in assay [1] and over 10000 nM in assay [2].
For `CC(C)C[C@H](NC(=O)c1cc2ccccc2[nH]1)C(=O)N[C@H](C=O)Cc1ccccc1`, the IC50 is 10.1 nM in assay [1] and over 10000 nM in assay [2].
For the compound `C=CC(=O)[C@H](Cc1ccccc1)NC(=O)[C@H](CC(C)C)NC(=O)/C=C/c1ccccc1`, the IC50 in assay [1] is over 1000 nM; in assay [2], over 10000 nM.
